In BindingDB's records for patent US20230365627 (Bristol Myers Squibb, 2023):
*1 amine or outer side, *2 acyl side, *3 side chain or, on linkers, in order; H or OH if unused. Where a SMILES comes first, the peptide text is derived from it. Bridges are numbered along the chain shown (N, C = ends). [ ]: non-standard residue; d: D form. X14 = O=C([C@H](CN1Cc2cccc(c2)B2OCC(O)[C@@H](O2)[C@@H](O)[C@H](O)[C@H](O)C1)N[*:1])[*:2]; X13 = O=C([C@H](CCNC[C@@H](O)[C@@H](O)[C@H](O)[C@H](O)C(O)CO)N[*:1])[*:2]; Trp(1-CH2COOH) = N[C@@H](Cc1cn(CC(=O)O)c2ccccc12)C(=O)O; Hyp = O=C(O)[C@@H]1C[C@@H](O)CN1; NMeNle = CCCC[C@H](NC)C(=O)O; NMeA = CN[C@@H](C)C(=O)O

The compounds below were run against Programmed cell death 1 ligand/protein 1 (Homo sapiens, UniProt Q9NZQ7) (assay: Binding of PD-1 to PD-L1 Using Homogenous Time-Resolved Fluorescence (HTRF) Binding Assay).
Sequence of Programmed cell death 1 ligand/protein 1 (Q9NZQ7 whole entry, the tested form may be a part): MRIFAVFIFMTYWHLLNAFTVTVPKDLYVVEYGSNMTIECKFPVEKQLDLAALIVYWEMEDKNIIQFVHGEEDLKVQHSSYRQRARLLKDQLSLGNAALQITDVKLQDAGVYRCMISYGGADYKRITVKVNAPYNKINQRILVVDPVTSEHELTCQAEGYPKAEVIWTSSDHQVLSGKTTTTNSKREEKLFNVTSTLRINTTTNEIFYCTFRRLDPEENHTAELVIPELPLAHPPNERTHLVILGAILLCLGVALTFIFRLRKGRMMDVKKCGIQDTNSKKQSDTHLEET
Sequence of Programmed cell death 1 ligand/protein 1 (Q15116 whole entry, further chain, the tested form may be a part): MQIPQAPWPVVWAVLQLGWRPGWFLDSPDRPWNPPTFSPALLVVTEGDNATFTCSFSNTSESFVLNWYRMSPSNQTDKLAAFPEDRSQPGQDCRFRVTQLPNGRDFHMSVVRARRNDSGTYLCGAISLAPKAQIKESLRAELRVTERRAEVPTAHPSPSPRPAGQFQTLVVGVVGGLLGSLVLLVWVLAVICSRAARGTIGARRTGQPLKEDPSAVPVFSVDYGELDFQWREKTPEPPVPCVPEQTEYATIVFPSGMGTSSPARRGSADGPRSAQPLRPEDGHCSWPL
Method: Homogenous Time-Resolved Fluorescence (HTRF) Binding Assay. The interaction of PD-1 and PD-L1 can be assessed using soluble, purified preparations of the extracellular domains of the two proteins. The PD-1 and PD-L1 protein extracellular domains were expressed as fusion proteins with detection tags, for PD-1, the tag was the Fc portion of Immunoglobulin (PD-1-Ig) and for PD-L1 it was the 6 histidine motif (PD-L1-His). All binding studies were performed in an HTRF assay buffer consisting of dPBS supplemented with 0.1% […] bovine serum albumin and 0.05% (v/v) Tween-20. For the h/PD-L1-His binding assay, inhibitors were pre-incubated with PD-L1-His (10 nM final) for 15 m in 4 μl of assay buffer, followed by addition of PD-1-Ig (20 nM final) in 1 μl of assay buffer and further incubation for 15 m. HTRF detection was achieved using europium cryptate-labeled anti-Ig (1 nM final) and allophycocyanin (APC) labeled anti-His (20 nM final). Antibodies were diluted in HTRF detection buffer and 5 μl was dispensed on top of the binding reaction. The reaction mixture was allowed to equilibrate for 30 minutes and the resulting signal (665 nm/620 nm ratio) was obtained using an EnVision fluorometer. Additional binding assays were established between the human proteins PD-1-Ig/PD-L2-His (20 & 5 nM, respectively) and CD80-His/PD-L1-Ig (100 & 10 nM, respectively).

SMILES	IC50 [nM]
CCCC[C@H]1C(=O)N(C)[C@@H](CCCC)C(=O)N[C@@H](CC(C)C)C(=O)N[C@H](C(=O)NCC(N)=O)CSCC(=O)N[C@@H](Cc2ccc(O)cc2)C(=O)N(C)[C@@H](C)C(=O)N[C@@H](CC(N)=O)C(=O)N2CCC[C@H]2C(=O)N[C@H]2CNC[C@@H](O)[C@@H](O)[C@H](O)[C@@H]3OB(OCC3O)c3ccccc3CNCC[C@H](NC(=O)[C@H](Cc3c[nH]c4ccccc34)NC(=O)[C@@H]3C[C@@H](O)CN3C(=O)[C@H](CC(C)C)NC2=O)C(=O)N[C@@H](Cc2cn(CC(=O)O)c3ccccc23)C(=O)N1C (some centres undefined) [US20230365627, Compound 1035]	4
CCCC[C@H]1C(=O)N(C)[C@@H](CCCC)C(=O)N[C@@H](CC(C)C)C(=O)N[C@H](C(=O)NCC(N)=O)CSCC(=O)N[C@@H](Cc2ccc(O)cc2)C(=O)N(C)[C@@H](C)C(=O)N[C@@H](CC(N)=O)C(=O)N2CCC[C@H]2C(=O)N[C@H]2CNC[C@@H](O)[C@@H](O)[C@H](O)[C@@H]3OB(OCC3O)c3cccc(c3)CNCC[C@H](NC(=O)[C@H](Cc3c[nH]c4ccccc34)NC(=O)[C@@H]3C[C@@H](O)CN3C(=O)[C@H](CC(C)C)NC2=O)C(=O)N[C@@H](Cc2cn(CC(=O)O)c3ccccc23)C(=O)N1C (some centres undefined) [US20230365627, Compound 1036]	9.5
CCCC[C@H]1C(=O)N(C)[C@@H](CCCC)C(=O)N[C@@H](CC(C)C)C(=O)N[C@H](C(=O)NCC(N)=O)CSCC(=O)N[C@@H](Cc2ccc(O)cc2)C(=O)N(C)[C@@H](C)C(=O)N[C@@H](CC(N)=O)C(=O)N2CCC[C@H]2C(=O)N[C@H]2CNC[C@@H](O)[C@@H](O)[C@H](O)[C@@H]3OB(OCC3O)c3ccc(cc3)CNCC[C@H](NC(=O)[C@H](Cc3c[nH]c4ccccc34)NC(=O)[C@@H]3C[C@@H](O)CN3C(=O)[C@H](CC(C)C)NC2=O)C(=O)N[C@@H](Cc2cn(CC(=O)O)c3ccccc23)C(=O)N1C (some centres undefined) [US20230365627, Compound 1037]	9.5
CCCC[C@H]1C(=O)N(C)[C@@H](CCCC)C(=O)N[C@@H](CC(C)C)C(=O)N[C@H](C(=O)NCC(N)=O)CSCC(=O)N[C@@H](Cc2ccc(O)cc2)C(=O)N(C)[C@@H](C)C(=O)N[C@@H](CC(N)=O)C(=O)N2CCC[C@H]2C(=O)N[C@@H](CN2Cc3cccc(c3)B3OCC(O)[C@@H](O3)[C@@H](O)[C@H](O)[C@H](O)C2)C(=O)N[C@@H](CC(C)C)C(=O)N2C[C@H](O)C[C@H]2C(=O)N[C@@H](Cc2c[nH]c3ccccc23)C(=O)N[C@@H](CCNC[C@@H](O)[C@@H](O)[C@H](O)[C@H](O)C(O)CO)C(=O)N[C@@H](Cc2cn(CC(=O)O)c3ccccc23)C(=O)N1C (some centres undefined) [US20230365627, Compound 1040] ({CH2CO}-Y[NMeA]NP[X14]L[Hyp]W[X13][Trp(1-CH2COOH)][NMeNle][NMeNle]LCG-NH2; thioether N-14)	5.6
